PMC7265341, “Quantifying CDK inhibitor selectivity in live cells” (Nature Communications, 2020)
Where two headings read alike, the source gives them in different places.

What was measured:
[1] = target: CDK11B/Cyclin L2 (Homo sapiens, UniProt P21127); assay: NanoBRET live-cell target engagement, CDK11B-NanoLuc/Cyclin L2 in HEK-293; format: binding; conditions: read-out: Inhibition at 10µM (%), CDK11b/L2
[2] = target: CDK18/Cyclin Y (Homo sapiens, UniProt Q07002); assay: NanoBRET live-cell target engagement, CDK18-NanoLuc/Cyclin Y in HEK-293; format: binding; conditions: read-out: Inhibition at 10µM (%), CDK18/Y
[3] = target: CDK2/Cyclin E1 (Homo sapiens, UniProt P24941); assay: NanoBRET live-cell target engagement, CDK2-NanoLuc/Cyclin E1 in HEK-293; format: binding; conditions: for inhibition at 10 µM: CDK2/E1, read-out: Inhibition at 10µM (%)
[4] = target: CDK7 (Homo sapiens, UniProt P50613); assay: NanoBRET live-cell target engagement, NanoLuc-CDK7 in HEK-293; format: binding; conditions: CDK7, read-out: Inhibition at 10µM (%)
[5] = target: CDK10/Cyclin L2 (Homo sapiens, UniProt Q15131); assay: NanoBRET live-cell target engagement, CDK10-NanoLuc/Cyclin L2 in HEK-293; conditions: read-out: Inhibition at 10µM (%), CDK10/L2
[6] = target: CDK6/Cyclin D1 (Homo sapiens, UniProt Q00534); assay: NanoBRET live-cell target engagement, NanoLuc-CDK6/Cyclin D1 in HEK-293; format: binding; conditions: CDK6/D1, read-out: Inhibition at 10µM (%)
[7] = target: CDK20/Cyclin H (Homo sapiens, UniProt Q8IZL9); assay: NanoBRET live-cell target engagement, NanoLuc-CDK20/Cyclin H in HEK-293; format: binding; conditions: read-out: Inhibition at 10µM (%), CDK20/H
[8] = target: CDK17/Cyclin Y (Homo sapiens, UniProt Q00537); assay: NanoBRET live-cell target engagement, CDK17-NanoLuc/Cyclin Y in HEK-293; format: binding; conditions: read-out: Inhibition at 10µM (%), CDK17/Y
[9] = target: T1, CDK11A/Cyclin L2 (Homo sapiens, UniProt Q9UQ88); assay: NanoBRET live-cell target engagement, CDK11A-NanoLuc/Cyclin L2 in HEK-293; format: binding; conditions: read-out: Inhibition at 10µM (%), CDK11a/L2
T1 sequence (Q9UQ88 1-783): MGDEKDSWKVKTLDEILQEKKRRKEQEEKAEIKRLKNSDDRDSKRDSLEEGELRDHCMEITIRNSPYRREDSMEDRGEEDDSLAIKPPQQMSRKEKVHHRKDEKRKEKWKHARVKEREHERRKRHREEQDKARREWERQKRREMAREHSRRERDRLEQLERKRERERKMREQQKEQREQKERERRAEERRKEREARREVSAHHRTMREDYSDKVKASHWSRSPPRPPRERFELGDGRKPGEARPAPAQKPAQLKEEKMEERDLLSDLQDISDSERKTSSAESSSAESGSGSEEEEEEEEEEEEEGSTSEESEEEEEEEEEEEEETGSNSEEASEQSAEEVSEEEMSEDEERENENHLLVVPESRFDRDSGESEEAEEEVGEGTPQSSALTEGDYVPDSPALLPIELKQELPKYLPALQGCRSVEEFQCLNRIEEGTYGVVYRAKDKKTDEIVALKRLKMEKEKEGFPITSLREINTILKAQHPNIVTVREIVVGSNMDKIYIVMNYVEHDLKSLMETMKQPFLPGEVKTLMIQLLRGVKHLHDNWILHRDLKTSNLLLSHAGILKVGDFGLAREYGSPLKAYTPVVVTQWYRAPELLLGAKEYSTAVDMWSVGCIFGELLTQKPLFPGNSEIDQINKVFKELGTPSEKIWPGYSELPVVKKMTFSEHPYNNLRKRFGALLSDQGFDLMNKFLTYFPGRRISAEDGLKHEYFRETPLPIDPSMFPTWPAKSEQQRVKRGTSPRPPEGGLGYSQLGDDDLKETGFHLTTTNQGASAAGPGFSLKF

[10] = target: CDK1/Cyclin E1 (Homo sapiens, UniProt P06493); assay: NanoBRET live-cell target engagement, CDK1-NanoLuc/Cyclin E1 in HEK-293; format: binding; conditions: CDK1/E1, read-out: Inhibition at 10µM (%)
[11] = target: CDK4/Cyclin D1 (Homo sapiens, UniProt P11802); assay: NanoBRET live-cell target engagement, NanoLuc-CDK4/Cyclin D1 in HEK-293; format: binding; conditions: CDK4/D1, read-out: Inhibition at 10µM (%)
[12] = target: CDK15/Cyclin Y (Homo sapiens, UniProt Q96Q40); assay: NanoBRET live-cell target engagement, NanoLuc-CDK15/Cyclin Y in HEK-293; format: binding; conditions: read-out: Inhibition at 10µM (%), CDK15/Y
[13] = target: CDK8/Cyclin C (Homo sapiens, UniProt P49336); assay: NanoBRET live-cell target engagement, NanoLuc-CDK8/Cyclin C in HEK-293; format: binding; conditions: for IC50: CDK8/C; for inhibition at 10 µM: read-out: Inhibition at 10µM (%), CDK8/C
[14] = target: CDK19/Cyclin C (Homo sapiens, UniProt Q9BWU1); assay: NanoBRET live-cell target engagement, NanoLuc-CDK19/Cyclin C in HEK-293; conditions: for IC50: CDK19/C; for inhibition at 10 µM: read-out: Inhibition at 10µM (%), CDK19/C
[15] = target: CDK14/Cyclin Y (Homo sapiens, UniProt O94921); assay: NanoBRET live-cell target engagement, CDK14-NanoLuc/Cyclin Y in HEK-293; format: binding; conditions: read-out: Inhibition at 10µM (%), CDK14/Y
[16] = target: CDK9/Cyclin K (Homo sapiens, UniProt P50750); assay: NanoBRET live-cell target engagement, NanoLuc-CDK9/Cyclin K in HEK-293; format: binding; conditions: CDK9/K, read-out: Inhibition at 10µM (%)
[17] = target: CDK13/Cyclin K (Homo sapiens, UniProt Q14004); assay: NanoBRET live-cell target engagement, CDK13-NanoLuc/Cyclin K in HEK-293; format: binding; conditions: CDK13/K, read-out: Inhibition at 10µM (%)
[18] = target: CDK16/Cyclin Y (Homo sapiens, UniProt Q00536); assay: NanoBRET live-cell target engagement, CDK16-NanoLuc/Cyclin Y in HEK-293; format: binding; conditions: read-out: Inhibition at 10µM (%), CDK16/Y
[19] = target: CDK5/CDK5R1 (Homo sapiens, UniProt Q00535); assay: NanoBRET live-cell target engagement, CDK5-NanoLuc/CDK5R1 in HEK-293; format: binding; conditions: CDK5/CDK5R1, read-out: Inhibition at 10µM (%)
[20] = LOG10([CCT251545 analog]) (LOG10(µM)) 0.045757
[21] = LOG10([CCT251545 analog]) (LOG10(µM)) 0.522879
[22] = LOG10([CCT251545 analog]) (LOG10(µM)) 1
[23] = LOG10([CCT251545 analog]) (LOG10(µM)) -0.43136
[24] = LOG10([CCT251545 analog]) (LOG10(µM)) -0.90849
[25] = LOG10([CCT251545 analog]) (LOG10(µM)) -1.38561
[26] = LOG10([CCT251545 analog]) (LOG10(µM)) -1.86273
[27] = LOG10([CCT251545 analog]) (LOG10(µM)) -2.33985
[28] = LOG10([CCT251545 analog]) (LOG10(µM)) -2.81697
[29] = LOG10([CCT251545 analog]) (LOG10(µM)) -3.29409
[30] = LOG10([CCT251545 analog]) (LOG10(µM)) -3.77121
[31] = IC50 for CDK/cyclin complexes, live HEK-293, 2 h, mean ± S.E.M. (n=3) or mean (n=2)

CDK15/Cyclin Y, sequence (Q96Q40 whole entry): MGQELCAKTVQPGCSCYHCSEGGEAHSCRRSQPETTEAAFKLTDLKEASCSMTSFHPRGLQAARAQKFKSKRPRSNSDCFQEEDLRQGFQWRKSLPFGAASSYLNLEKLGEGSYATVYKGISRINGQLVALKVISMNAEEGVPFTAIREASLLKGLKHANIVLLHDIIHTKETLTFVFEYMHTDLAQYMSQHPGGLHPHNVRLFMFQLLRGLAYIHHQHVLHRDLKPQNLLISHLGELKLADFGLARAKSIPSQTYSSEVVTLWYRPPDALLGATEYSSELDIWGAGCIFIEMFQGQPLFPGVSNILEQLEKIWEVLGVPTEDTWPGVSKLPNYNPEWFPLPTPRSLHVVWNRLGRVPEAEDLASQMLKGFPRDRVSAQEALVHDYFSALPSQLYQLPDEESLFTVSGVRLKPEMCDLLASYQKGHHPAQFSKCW
CDK15/Cyclin Y, sequence (Q8ND76 whole entry partner): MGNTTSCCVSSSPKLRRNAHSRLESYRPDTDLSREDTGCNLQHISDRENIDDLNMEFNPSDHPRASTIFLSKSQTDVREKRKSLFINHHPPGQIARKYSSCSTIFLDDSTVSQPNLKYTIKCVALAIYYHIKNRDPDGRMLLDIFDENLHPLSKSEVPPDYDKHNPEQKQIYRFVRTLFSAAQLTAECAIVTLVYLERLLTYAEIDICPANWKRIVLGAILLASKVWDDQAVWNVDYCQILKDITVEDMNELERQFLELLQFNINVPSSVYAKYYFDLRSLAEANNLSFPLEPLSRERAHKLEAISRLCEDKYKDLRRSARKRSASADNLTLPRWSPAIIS
CDK6/Cyclin D1, sequence (Q00534 whole entry): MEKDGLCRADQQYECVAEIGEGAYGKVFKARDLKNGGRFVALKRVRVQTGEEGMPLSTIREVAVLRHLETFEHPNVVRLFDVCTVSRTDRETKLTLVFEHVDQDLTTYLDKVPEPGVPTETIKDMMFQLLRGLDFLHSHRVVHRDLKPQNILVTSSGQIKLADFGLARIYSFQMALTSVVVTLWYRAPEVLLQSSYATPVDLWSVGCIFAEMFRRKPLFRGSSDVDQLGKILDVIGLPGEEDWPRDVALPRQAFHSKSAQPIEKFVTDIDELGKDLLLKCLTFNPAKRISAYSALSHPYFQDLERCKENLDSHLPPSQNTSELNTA
CDK6/Cyclin D1, sequence (P24385 whole entry partner): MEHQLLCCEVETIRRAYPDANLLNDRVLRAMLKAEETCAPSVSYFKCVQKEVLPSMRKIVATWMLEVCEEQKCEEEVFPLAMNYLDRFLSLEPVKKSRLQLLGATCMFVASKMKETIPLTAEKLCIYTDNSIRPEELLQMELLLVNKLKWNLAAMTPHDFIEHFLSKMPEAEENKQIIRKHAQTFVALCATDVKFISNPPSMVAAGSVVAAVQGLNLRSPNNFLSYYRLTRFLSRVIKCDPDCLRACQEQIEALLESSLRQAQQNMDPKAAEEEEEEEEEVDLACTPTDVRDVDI
CDK13/Cyclin K, sequence (O75909 whole entry): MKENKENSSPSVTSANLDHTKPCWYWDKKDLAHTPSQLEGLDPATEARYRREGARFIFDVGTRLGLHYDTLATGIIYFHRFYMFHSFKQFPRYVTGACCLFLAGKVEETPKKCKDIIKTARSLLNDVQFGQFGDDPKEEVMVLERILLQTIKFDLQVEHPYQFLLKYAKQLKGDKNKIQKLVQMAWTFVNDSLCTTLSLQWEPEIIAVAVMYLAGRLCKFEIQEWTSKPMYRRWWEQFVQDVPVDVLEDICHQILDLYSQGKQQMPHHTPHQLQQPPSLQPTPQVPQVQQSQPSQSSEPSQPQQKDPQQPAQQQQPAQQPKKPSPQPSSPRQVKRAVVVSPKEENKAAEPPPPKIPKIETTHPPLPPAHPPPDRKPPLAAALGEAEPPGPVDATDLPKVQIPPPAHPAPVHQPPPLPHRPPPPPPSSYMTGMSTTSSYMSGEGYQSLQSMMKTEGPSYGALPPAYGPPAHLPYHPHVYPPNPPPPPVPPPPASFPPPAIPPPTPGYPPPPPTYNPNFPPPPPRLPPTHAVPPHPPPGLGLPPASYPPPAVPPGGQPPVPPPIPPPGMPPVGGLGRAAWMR
CDK13/Cyclin K, sequence (Q14004 other isoform, or with tags, fused parts or gaps): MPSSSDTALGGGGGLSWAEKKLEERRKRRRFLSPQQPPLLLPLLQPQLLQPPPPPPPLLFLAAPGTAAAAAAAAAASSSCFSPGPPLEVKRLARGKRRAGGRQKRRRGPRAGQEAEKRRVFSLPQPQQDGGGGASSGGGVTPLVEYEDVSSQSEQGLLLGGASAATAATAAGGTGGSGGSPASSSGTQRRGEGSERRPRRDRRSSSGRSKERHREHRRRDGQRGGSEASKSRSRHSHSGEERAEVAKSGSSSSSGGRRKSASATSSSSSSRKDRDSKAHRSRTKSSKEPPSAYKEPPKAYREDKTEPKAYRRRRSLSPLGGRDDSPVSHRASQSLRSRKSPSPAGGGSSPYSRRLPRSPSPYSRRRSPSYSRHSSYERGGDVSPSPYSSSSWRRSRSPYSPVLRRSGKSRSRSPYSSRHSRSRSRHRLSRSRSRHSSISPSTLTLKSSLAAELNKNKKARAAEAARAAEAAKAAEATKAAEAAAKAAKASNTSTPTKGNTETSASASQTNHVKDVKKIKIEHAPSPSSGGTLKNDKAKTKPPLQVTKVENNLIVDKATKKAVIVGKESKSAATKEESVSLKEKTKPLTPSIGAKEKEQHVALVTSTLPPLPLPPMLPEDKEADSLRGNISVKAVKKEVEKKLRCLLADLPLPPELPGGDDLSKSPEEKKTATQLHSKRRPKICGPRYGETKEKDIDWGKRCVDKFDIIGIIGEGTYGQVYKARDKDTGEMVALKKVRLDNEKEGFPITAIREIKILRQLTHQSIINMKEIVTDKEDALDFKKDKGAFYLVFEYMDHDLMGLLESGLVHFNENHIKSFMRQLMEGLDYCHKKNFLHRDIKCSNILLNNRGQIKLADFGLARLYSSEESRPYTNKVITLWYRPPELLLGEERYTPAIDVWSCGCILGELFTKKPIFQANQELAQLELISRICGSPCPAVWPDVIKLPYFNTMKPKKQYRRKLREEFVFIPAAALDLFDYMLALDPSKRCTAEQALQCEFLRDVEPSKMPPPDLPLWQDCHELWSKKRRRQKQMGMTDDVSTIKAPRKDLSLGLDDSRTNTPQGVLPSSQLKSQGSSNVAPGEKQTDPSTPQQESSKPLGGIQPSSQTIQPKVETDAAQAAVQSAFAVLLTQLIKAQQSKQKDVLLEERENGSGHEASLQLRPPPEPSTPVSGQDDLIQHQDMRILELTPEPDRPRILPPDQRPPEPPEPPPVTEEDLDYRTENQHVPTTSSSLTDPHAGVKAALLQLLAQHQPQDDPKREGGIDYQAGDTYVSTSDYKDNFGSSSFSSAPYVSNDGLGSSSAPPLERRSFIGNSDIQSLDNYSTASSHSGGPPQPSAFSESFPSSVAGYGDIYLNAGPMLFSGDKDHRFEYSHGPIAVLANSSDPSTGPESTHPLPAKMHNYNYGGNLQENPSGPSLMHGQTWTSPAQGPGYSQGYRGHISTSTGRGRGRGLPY
CDK17/Cyclin Y, sequence (Q00537 whole entry): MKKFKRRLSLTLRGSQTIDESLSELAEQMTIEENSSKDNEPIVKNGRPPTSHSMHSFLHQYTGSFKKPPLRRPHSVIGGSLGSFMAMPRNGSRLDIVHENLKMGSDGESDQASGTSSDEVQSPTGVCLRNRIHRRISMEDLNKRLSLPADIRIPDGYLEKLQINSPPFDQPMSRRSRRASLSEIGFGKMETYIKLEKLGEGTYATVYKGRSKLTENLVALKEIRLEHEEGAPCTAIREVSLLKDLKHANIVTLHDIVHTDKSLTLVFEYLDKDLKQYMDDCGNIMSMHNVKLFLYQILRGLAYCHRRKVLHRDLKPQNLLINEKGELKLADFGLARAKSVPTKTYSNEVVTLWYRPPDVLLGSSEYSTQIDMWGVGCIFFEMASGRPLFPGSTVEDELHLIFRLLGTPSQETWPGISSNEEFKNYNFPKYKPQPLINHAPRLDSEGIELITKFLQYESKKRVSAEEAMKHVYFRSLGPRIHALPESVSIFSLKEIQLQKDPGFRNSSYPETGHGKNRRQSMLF
CDK17/Cyclin Y, sequence (Q8ND76 whole entry partner): as the sequence (Q8ND76 whole entry partner) above
CDK8/Cyclin C, sequence (P49336 whole entry): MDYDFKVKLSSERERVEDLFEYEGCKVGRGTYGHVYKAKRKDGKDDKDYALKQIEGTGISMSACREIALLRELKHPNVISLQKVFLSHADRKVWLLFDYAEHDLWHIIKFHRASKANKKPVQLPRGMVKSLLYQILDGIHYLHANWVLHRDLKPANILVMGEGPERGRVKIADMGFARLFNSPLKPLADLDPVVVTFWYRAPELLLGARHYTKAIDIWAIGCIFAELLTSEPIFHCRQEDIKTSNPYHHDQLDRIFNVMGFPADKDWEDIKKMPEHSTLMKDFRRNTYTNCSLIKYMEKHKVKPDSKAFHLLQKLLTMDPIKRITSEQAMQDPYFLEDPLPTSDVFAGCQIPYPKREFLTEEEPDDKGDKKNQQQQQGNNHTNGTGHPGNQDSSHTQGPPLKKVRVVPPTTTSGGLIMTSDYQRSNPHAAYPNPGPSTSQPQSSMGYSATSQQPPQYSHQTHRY
CDK8/Cyclin C, sequence (P24863 whole entry partner): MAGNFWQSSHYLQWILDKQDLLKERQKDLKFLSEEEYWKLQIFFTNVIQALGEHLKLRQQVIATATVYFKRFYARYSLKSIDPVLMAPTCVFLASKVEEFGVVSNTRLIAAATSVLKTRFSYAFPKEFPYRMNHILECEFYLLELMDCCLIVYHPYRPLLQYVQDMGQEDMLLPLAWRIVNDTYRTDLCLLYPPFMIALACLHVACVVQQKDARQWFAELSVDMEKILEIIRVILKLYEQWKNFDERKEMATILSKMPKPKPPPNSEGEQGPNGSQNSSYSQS

COC1CN(C(=O)c2ccc3c(N)ncc(-c4ccc(-c5cnn(C)c5)cc4)c3n2)C1 [CCT251545 analog]
inhibition at 10 µM ([1]; average): 0.563%
inhibition at 10 µM ([1]; experiment 1): 2.1%
inhibition at 10 µM ([1]; experiment 2): -1%
inhibition at 10 µM ([2]; average): 0.4%
inhibition at 10 µM ([2]; experiment 1): -7.3%
inhibition at 10 µM ([2]; experiment 2): 8.1%
inhibition at 10 µM ([3]; average): -18.6%
inhibition at 10 µM ([3]; experiment 1): -37.1%
inhibition at 10 µM ([3]; experiment 2): -0.0714%
CDK2 Occupancy (%) [3, 20]: 0.4583%
CDK2 Occupancy (%) [3, 21]: 13.0609%
CDK2 Occupancy (%) [3, 22]: 32.3087%
CDK2 Occupancy (%) [3, 23]: 6.187%
CDK2 Occupancy (%) [3, 24]: 0%
CDK2 Occupancy (%) [3, 25]: 0.6874%
CDK2 Occupancy (%) [3, 26]: 13.5192%
CDK2 Occupancy (%) [3, 27]: 9.853%
CDK2 Occupancy (%) [3, 28]: 9.166%
CDK2 Occupancy (%) [3, 29]: 4.812%
CDK2 Occupancy (%) [3, 30]: 2.291%
inhibition at 10 µM ([4]; average): 9.4%
inhibition at 10 µM ([4]; experiment 1): 11.5%
inhibition at 10 µM ([4]; experiment 2): 7.3%
inhibition at 10 µM ([5]; average): -11.6%
inhibition at 10 µM ([5]; experiment 1): -2.4%
inhibition at 10 µM ([5]; experiment 2): -20.8%
inhibition at 10 µM ([6]; average): 17.9%
inhibition at 10 µM ([6]; experiment 1): 15.1%
inhibition at 10 µM ([6]; experiment 2): 20.8%
inhibition at 10 µM ([7]; experiment 1): 12.7%
inhibition at 10 µM ([7]; experiment 2): 4.1%
inhibition at 10 µM ([8]; average): 11.3%
inhibition at 10 µM ([8]; experiment 1): 8.9%
inhibition at 10 µM ([8]; experiment 2): 13.7%
inhibition at 10 µM ([9]; average): 0.8%
inhibition at 10 µM ([9]; experiment 1): -1%
inhibition at 10 µM ([9]; experiment 2): 2.6%
inhibition at 10 µM ([10]; average): 16.7%
inhibition at 10 µM ([10]; experiment 1): 19.7%
inhibition at 10 µM ([10]; experiment 2): 13.7%
inhibition at 10 µM ([11]; average): 12.4%
inhibition at 10 µM ([11]; experiment 1): 11.6%
inhibition at 10 µM ([11]; experiment 2): 13.1%
inhibition at 10 µM ([12]; average): -9.7%
inhibition at 10 µM ([12]; experiment 1): -3.1%
inhibition at 10 µM ([12]; experiment 2): -16.3%
IC50 ([13]; IC50 (nM), experiment 1): 2.6 nM
IC50 ([13]; IC50 (nM), experiment 2): 2 nM
IC50 ([13]; IC50 (nM), experiment 3): 12 nM
IC50 [13, 31]: 6 nM
CDK8 Occupancy (%) [13, 20]: 92.3464%
CDK8 Occupancy (%) [13, 21]: 91.9478%
CDK8 Occupancy (%) [13, 22]: 84.2411%
CDK8 Occupancy (%) [13, 23]: 91.0176%
CDK8 Occupancy (%) [13, 24]: 91.5491%
CDK8 Occupancy (%) [13, 25]: 90.619%
CDK8 Occupancy (%) [13, 26]: 85.7027%
CDK8 Occupancy (%) [13, 27]: 65.2404%
CDK8 Occupancy (%) [13, 28]: 51.023%
CDK8 Occupancy (%) [13, 29]: 25.2458%
CDK8 Occupancy (%) [13, 30]: 19.9309%
inhibition at 10 µM ([13]; average): 96%
inhibition at 10 µM ([13]; experiment 1): 95%
inhibition at 10 µM ([13]; experiment 2): 96.9%
IC50 ([14]; IC50 (nM), experiment 1): 9 nM
IC50 ([14]; IC50 (nM), experiment 2): 3 nM
IC50 ([14]; IC50 (nM), experiment 3): 17 nM
IC50 [14, 31]: 10 nM
CDK19 occupancy (%) [14, 20]: 84.8277%
CDK19 occupancy (%) [14, 21]: 83.6158%
CDK19 occupancy (%) [14, 22]: 72.7094%
CDK19 occupancy (%) [14, 23]: 89.9173%
CDK19 occupancy (%) [14, 24]: 87.736%
CDK19 occupancy (%) [14, 25]: 82.404%
CDK19 occupancy (%) [14, 26]: 73.4365%
CDK19 occupancy (%) [14, 27]: 46.7764%
CDK19 occupancy (%) [14, 28]: 31.7498%
CDK19 occupancy (%) [14, 29]: 15.7537%
CDK19 occupancy (%) [14, 30]: 2.424%
inhibition at 10 µM ([14]; average): 92.3%
inhibition at 10 µM ([14]; experiment 1): 93.4%
inhibition at 10 µM ([14]; experiment 2): 91.3%
inhibition at 10 µM ([15]; average): -6.1%
inhibition at 10 µM ([15]; experiment 1): -1.1%
inhibition at 10 µM ([15]; experiment 2): -11%
inhibition at 10 µM ([16]; average): 7.2%
inhibition at 10 µM ([16]; experiment 1): 6.8%
inhibition at 10 µM ([16]; experiment 2): 7.5%
inhibition at 10 µM ([17]; average): 6.6%
inhibition at 10 µM ([17]; experiment 1): 6.4%
inhibition at 10 µM ([17]; experiment 2): 6.7%
inhibition at 10 µM ([18]; experiment 1): 6.3%
inhibition at 10 µM ([18]; experiment 2): 1.1%
inhibition at 10 µM ([19]; average): 16.2%
inhibition at 10 µM ([19]; experiment 1): 17.8%
inhibition at 10 µM ([19]; experiment 2): 14.5%
